Experimental data from patent US10750743B2, “Pyridazinone herbicides” (E.I. DU PONT DE NEMOURS AND COMPANY, priority 2015, dated 2020).

Experiments:
Assay type in all cases: in vivo
[1] = tested on: pigweed (Amaranthus retroflexus); experiment: Test A preemergence, directed soil spray, visual injury rating; conditions: 0 is no effect, 100 is complete control
How it was run: (§1)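 Injury ratings, 0 (no effect) to 100 (complete control), were scored visually versus untreated plants roughly 10 d after treatment under greenhouse conditions. Treatments used surfactant-containing solvent formulations, sprayed onto soil preemergence or onto one- to two-leaf seedlings (2-10 cm) postemergence, grown in a loam-sand mix.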

[2] = tested on: kochia (Kochia scoparia); experiment: as above; conditions: 0 is no effect, 100 is complete control
How it was run: as §1

[3] = tested on: foxtail, giant (giant foxtail, Setaria faberii); experiment: as above; conditions: 0 is no effect, 100 is complete control
How it was run: as §1

[4] = tested on: ragweed (common ragweed, Ambrosia elatior); experiment: as above; conditions: 0 is no effect, 100 is complete control
How it was run: as §1

[5] = tested on: barnyardgrass (Echinochloa crus-galli); experiment: as above; conditions: 0 is no effect, 100 is complete control
How it was run: as §1

[6] = tested on: ryegrass, It. (Italian ryegrass, Lolium multiflorum); experiment: as above; conditions: 0 is no effect, 100 is complete control
How it was run: as §1

[7] = tested on: pigweed (Amaranthus retroflexus); experiment: Test A postemergence application, visual injury rating; conditions: 0 to 100 scale, 0 no effect, 100 complete control
How it was run: as §1

[8] = tested on: kochia (Kochia scoparia); experiment: as above; conditions: 0 to 100 scale, 0 no effect, 100 complete control
How it was run: as §1

[9] = tested on: foxtail, giant (giant foxtail, Setaria faberii); experiment: as above; conditions: 0 to 100 scale, 0 no effect, 100 complete control
How it was run: as §1

[10] = tested on: wheat (Triticum aestivum); experiment: as above; conditions: 0 to 100 scale, 0 no effect, 100 complete control
How it was run: as §1

[11] = tested on: ragweed (common ragweed, Ambrosia elatior); experiment: as above; conditions: 0 to 100 scale, 0 no effect, 100 complete control
How it was run: as §1

[12] = tested on: galium (catchweed bedstraw, Galium aparine); experiment: as above; conditions: 0 to 100 scale, 0 no effect, 100 complete control
How it was run: as §1

[13] = tested on: barnyardgrass (Echinochloa crus-galli); experiment: as above; conditions: 0 to 100 scale, 0 no effect, 100 complete control
How it was run: as §1

[14] = tested on: ryegrass, It. (Italian ryegrass, Lolium multiflorum); experiment: as above; conditions: 0 to 100 scale, 0 no effect, 100 complete control
How it was run: as §1

[15] = tested on: blackgrass (Alopecurus myosuroides); experiment: as above; conditions: 0 to 100 scale, 0 no effect, 100 complete control
How it was run: as §1

[16] = tested on: corn (Zea mays); experiment: as above; conditions: 0 to 100 scale, 0 no effect, 100 complete control
How it was run: as §1

[17] = tested on: ducksalad (Heteranthera limosa); experiment: Test B flooded paddy test, visual rating; conditions: Flood, 250 g ai/ha, applied to paddy water, rated after 13 to 15 d
How it was run: (§2)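 Ratings use a 0-100 visual scale, where 100 is complete control, and compare treated plants with controls after 13 to 15 d of greenhouse growth. Compound went straight into paddy water kept 3 cm over the soil surface, applied to seedlings at the 2-leaf stage.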

[18] = tested on: rice (Oryza sativa); experiment: Test B flooded paddy test, visual rating; conditions: Flood, 250 g ai/ha, applied to paddy water, rated after 13 to 15 d
How it was run: as §2

[19] = tested on: barnyardgrass (Echinochloa crus-galli); experiment: Test B flooded paddy test, visual rating; conditions: Flood, 250 g ai/ha, applied to paddy water, rated after 13 to 15 d
How it was run: as §2

[20] = tested on: sedge, umbrella (small-flower umbrella sedge, Cyperus difformis); experiment: Test B flooded paddy test, visual rating; conditions: Flood, 250 g ai/ha, applied to paddy water, rated after 13 to 15 d
How it was run: as §2

| SMILES | Plant response rating (0 to 100 scale), Pigweed ([1]; 31 g ai/ha) | Plant response rating (0 to 100 scale), Pigweed ([1]; 125 g ai/ha) | Plant response rating (0 to 100 scale), Kochia ([2]; 31 g ai/ha) | Plant response rating (0 to 100 scale), Kochia ([2]; 125 g ai/ha) | Plant response rating (0 to 100 scale), Foxtail, Giant ([3]; 31 g ai/ha) | Plant response rating (0 to 100 scale), Foxtail, Giant ([3]; 125 g ai/ha) | Plant response rating (0 to 100 scale), Ragweed ([4]; 31 g ai/ha) | Plant response rating (0 to 100 scale), Ragweed ([4]; 125 g ai/ha) | Plant response rating (0 to 100 scale), Barnyardgrass ([5]; 31 g ai/ha) | Plant response rating (0 to 100 scale), Barnyardgrass ([5]; 125 g ai/ha) | Plant response rating (0 to 100 scale), Ryegrass, It. ([6]; 31 g ai/ha) | Plant response rating (0 to 100 scale), Ryegrass, It. ([6]; 125 g ai/ha) | Pigweed plant response rating ([7]; 31 g ai/ha) | Pigweed plant response rating ([7]; 125 g ai/ha) | Kochia plant response rating ([8]; 31 g ai/ha) | Kochia plant response rating ([8]; 125 g ai/ha) | Foxtail, Giant plant response rating ([9]; 31 g ai/ha) | Foxtail, Giant plant response rating ([9]; 125 g ai/ha) | Wheat plant response rating ([10]; 31 g ai/ha) | Wheat plant response rating ([10]; 125 g ai/ha) | other results |
| --- | --- | --- | --- | --- | --- | --- | --- | --- | --- | --- | --- | --- | --- | --- | --- | --- | --- | --- | --- | --- | --- |
| Cn1nc(Cl)c(O)c(-c2cccc3[nH]nnc23)c1=O [Compound 38] | 0 | 0 | 0 | 0 | 0 | 0 | 0 | 0 | 0 | 0 | 0 | 0 | 0 | 0 | 0 | 0 | 0 | 0 | 0 | 0 | Ragweed plant response rating ([11]; 31 g ai/ha): 0; Ragweed plant response rating ([11]; 125 g ai/ha): 0; Galium plant response rating ([12]; 31 g ai/ha): 0; Galium plant response rating ([12]; 125 g ai/ha): 0; Barnyardgrass plant response rating ([13]; 31 g ai/ha): 0; Barnyardgrass plant response rating ([13]; 125 g ai/ha): 0; Ryegrass, It. plant response rating ([14]; 31 g ai/ha): 0; Ryegrass, It. plant response rating ([14]; 125 g ai/ha): 0; Blackgrass plant response rating ([15]; 31 g ai/ha): 0; Blackgrass plant response rating ([15]; 125 g ai/ha): 0; Corn plant response rating ([16]; 31 g ai/ha): 0; Corn plant response rating ([16]; 125 g ai/ha): 0; Ducksalad plant response rating (0 to 100 scale, 0 is no effect, 100 is complete control) [17]: 0; Rice plant response rating (0 to 100 scale, 0 is no effect, 100 is complete control) [18]: 0; Barnyardgrass plant response rating (0 to 100 scale, 0 is no effect, 100 is complete control) [19]: 0; Sedge, Umbrella plant response rating (0 to 100 scale, 0 is no effect, 100 is complete control) [20]: 0 |
| Cc1cc2c(Cl)ccc(-c3c(OC(=O)c4ccccc4)c(C)nn(C)c3=O)c2o1 [Compound 39] | 0 | 0 | 0 | 0 | 0 | 0 | 0 | 0 | 0 | 0 | 10 | 50 | 0 | 0 | 0 | 0 | 0 | 10 | 0 | 0 | Ragweed plant response rating ([11]; 31 g ai/ha): 0; Ragweed plant response rating ([11]; 125 g ai/ha): 10; Galium plant response rating ([12]; 31 g ai/ha): 30; Galium plant response rating ([12]; 125 g ai/ha): 90; Barnyardgrass plant response rating ([13]; 31 g ai/ha): 0; Barnyardgrass plant response rating ([13]; 125 g ai/ha): 10; Ryegrass, It. plant response rating ([14]; 31 g ai/ha): 20; Ryegrass, It. plant response rating ([14]; 125 g ai/ha): 30; Blackgrass plant response rating ([15]; 31 g ai/ha): 0; Blackgrass plant response rating ([15]; 125 g ai/ha): 20; Corn plant response rating ([16]; 31 g ai/ha): 0; Corn plant response rating ([16]; 125 g ai/ha): 0; Ducksalad plant response rating (0 to 100 scale, 0 is no effect, 100 is complete control) [17]: 50; Rice plant response rating (0 to 100 scale, 0 is no effect, 100 is complete control) [18]: 0; Barnyardgrass plant response rating (0 to 100 scale, 0 is no effect, 100 is complete control) [19]: 0; Sedge, Umbrella plant response rating (0 to 100 scale, 0 is no effect, 100 is complete control) [20]: 0 |
| COC(=O)Oc1c(C)nn(C)c(=O)c1-c1ccc(Cl)c2cc(C)oc12 [Compound 40] | 0 | 60 | 0 | 0 | 0 | 20 | 0 | 50 | 0 | 20 | 80 | 90 | 20 | 40 | 0 | 0 | 10 | 20 | 0 | 0 | Ragweed plant response rating ([11]; 31 g ai/ha): 20; Ragweed plant response rating ([11]; 125 g ai/ha): 40; Galium plant response rating ([12]; 31 g ai/ha): 90; Galium plant response rating ([12]; 125 g ai/ha): 100; Barnyardgrass plant response rating ([13]; 31 g ai/ha): 10; Barnyardgrass plant response rating ([13]; 125 g ai/ha): 20; Ryegrass, It. plant response rating ([14]; 31 g ai/ha): 40; Ryegrass, It. plant response rating ([14]; 125 g ai/ha): 70; Blackgrass plant response rating ([15]; 31 g ai/ha): 0; Blackgrass plant response rating ([15]; 125 g ai/ha): 20; Corn plant response rating ([16]; 31 g ai/ha): 0; Corn plant response rating ([16]; 125 g ai/ha): 10; Ducksalad plant response rating (0 to 100 scale, 0 is no effect, 100 is complete control) [17]: 0; Rice plant response rating (0 to 100 scale, 0 is no effect, 100 is complete control) [18]: 0; Barnyardgrass plant response rating (0 to 100 scale, 0 is no effect, 100 is complete control) [19]: 0; Sedge, Umbrella plant response rating (0 to 100 scale, 0 is no effect, 100 is complete control) [20]: 0 |
